Data: patent US20150065440A1 (Progen Pharmaceuticals Limited, priority 2007, published 2015)

What was measured:
FGF-2 = FGF-2 (Homo sapiens, UniProt P09038); assay: Growth factor binding assay (SPR solution affinity), FGF-2; conditions: SPR, HBS-EP buffer containing 0.3 M NaCl, 25° C.; read-out: Kd FGF-2
Description: (§1) Binding affinities of compounds for the growth factors FGF-1, FGF-2 and VEGF were measured using a surface plasmon resonance (SPR) based solution affinity assay.^9 Heparin-coated sensorchips used for this assay were prepared via immobilisation of biotinylated BSA-heparin on a streptavidin-coated sensorchip, or via aldehyde coupling using either adipic acid dihydrazide or 1,4-diaminobutane.^9 For each Kd measurement, solutions were prepared containing a fixed concentration of protein and varying concentrations of the ligand in buffer. Ligands binding to FGF-1 and VEGF were measured in HBS-EP buffer (10 mM HEPES, pH 7.4, 150 mM NaCl, 3.0 mM EDTA and 0.005% (v/v) polysorbate 20), while binding to FGF-2 was measured in HBS-EP buffer containing 0.3 M NaCl. Prior to injection, samples were maintained at 4° C. to maximise protein stability. For each assay mixture, 50-200 μL of solution was injected at 5-40 μL/min and the relative binding response measured. All surface binding experiments were performed at 25° C. The surface was regenerated by injection of 40 μL of 4M NaCl at 40 μL/min, followed by injection of 40 μL of buffer at 40 μL/min.
(§2) Sensorgram data were analysed using the BIAevaluation software (BIAcore) and Kd values determined as previously described.^9 Where Kd values were measured in duplicate, the values represent the average of the duplicate measurements.

[1] = tested on: pooled normal human plasma; assay: Anticoagulant activity, APTT; conditions: 0.1 mg/mL in normal pooled human plasma
Description: APTT measurements were performed on a STAGO STA-Compact Coagulation Analyser using standard protocols according to the manufacturer's instructions. Unfractionated heparin (UFH) was used as a control.

[2] = tested on: normal pooled human plasma; assay: Anticoagulant activity, Heptest; conditions: 0.1 mg/mL in normal pooled human plasma
VEGF = molecular target: T1, VEGF (Homo sapiens, UniProt P15692); assay: Growth factor binding assay (SPR solution affinity), VEGF; conditions: HBS-EP buffer, 25° C.
T1 sequence (P15692 207-395): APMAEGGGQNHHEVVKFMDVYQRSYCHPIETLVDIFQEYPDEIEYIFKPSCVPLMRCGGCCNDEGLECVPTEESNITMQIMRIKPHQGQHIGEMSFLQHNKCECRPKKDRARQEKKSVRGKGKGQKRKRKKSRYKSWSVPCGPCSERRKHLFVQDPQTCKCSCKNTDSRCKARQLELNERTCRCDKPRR
Description: as §1, §2

[3] = molecular target: T2, recombinant human heparanase (Homo sapiens, UniProt Q9Y251); assay: Heparanase inhibition assay (fondaparinux cleavage, WST-1); conditions: read-out: Ki Heparanase; IC50 converted into Ki; fondaparinux 100 μM, pH 5.0
T2 sequence (Q9Y251 158-543 limits assumed): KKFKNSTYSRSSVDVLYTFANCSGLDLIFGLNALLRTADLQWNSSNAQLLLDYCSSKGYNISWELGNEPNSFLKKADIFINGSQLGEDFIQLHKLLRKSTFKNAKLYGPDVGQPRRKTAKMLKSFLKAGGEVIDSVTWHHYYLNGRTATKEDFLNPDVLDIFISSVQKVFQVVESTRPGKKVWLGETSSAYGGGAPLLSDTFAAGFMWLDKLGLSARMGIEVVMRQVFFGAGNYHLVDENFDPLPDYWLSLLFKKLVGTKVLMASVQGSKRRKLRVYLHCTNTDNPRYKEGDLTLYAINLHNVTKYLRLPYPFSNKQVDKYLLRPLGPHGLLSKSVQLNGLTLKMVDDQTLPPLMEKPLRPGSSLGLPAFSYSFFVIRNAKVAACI
T2 sequence (Q9Y251 36-109 limits assumed): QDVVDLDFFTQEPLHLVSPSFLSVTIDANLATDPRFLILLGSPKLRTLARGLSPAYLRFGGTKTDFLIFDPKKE
Description: In the presence of an inhibitor the catalytic activity of heparanase is reduced, and the amount of disaccharide produced and the optical density of the solution are both decreased. The percent inhibition and IC50 of the inhibitor are determined from measurement of the optical density (OD) over a range of inhibitor concentrations.
Assays were carried out in 40 mM sodium acetate buffer, pH 5.0, as follows. […] A blue colour was developed by incubation of the plates at 60° C. for 60 min. […] The IC50 value for each compound was evaluated and converted into a Ki (inhibition constant) using the expression

FGF-1 = FGF-1 (Homo sapiens, UniProt P05230); assay: Growth factor binding assay (SPR solution affinity), FGF-1; conditions: SPR, HBS-EP buffer, 25° C.; read-out: Kd FGF-1
Description: as §1, §2

Sequence of FGF-2 (P09038 143-288, species assumed): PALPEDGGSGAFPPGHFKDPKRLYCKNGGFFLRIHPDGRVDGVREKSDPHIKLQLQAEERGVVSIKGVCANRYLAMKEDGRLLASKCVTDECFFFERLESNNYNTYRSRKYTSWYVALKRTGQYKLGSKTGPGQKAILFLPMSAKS
Sequence of FGF-1 (P05230 whole entry, species assumed): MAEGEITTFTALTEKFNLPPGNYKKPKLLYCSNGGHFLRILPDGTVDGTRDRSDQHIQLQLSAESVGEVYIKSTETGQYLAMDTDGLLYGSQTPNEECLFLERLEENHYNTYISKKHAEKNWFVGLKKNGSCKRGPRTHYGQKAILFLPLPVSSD

Row | Structure (SMILES) | Kd (FGF-2) [nM] | APTT [1] [s] | Heptest [2] [s] | Kd (VEGF) [nM] | Ki [3] [nM] | Kd (FGF-1) [nM]
1 | CCCCCCCCCCCCCCCCCC(=O)NCCCOC1OC(COS(=O)(=O)O)C(OS(=O)(=O)O)C(OS(=O)(=O)O)C1OC1OC(COS(=O)(=O)O)C(OS(=O)(=O)O)C(OC2OC(COS(=O)(=O)O)C(OS(=O)(=O)O)C(OC3OC(COS(=O)(=O)O)C(OS(=O)(=O)O)C(OS(=O)(=O)O)C3OS(=O)(=O)O)C2OS(=O)(=O)O)C1OS(=O)(=O)O [Compound 24, 3-Stearamidopropyl 2,3,4,6-tetra-O-sodium sulfonato-α-D-mannopyranosyl-(1→3)-2,4,6-tri-O-sodium sulfonato-α-D-mannopyranosyl-(1→3)-2,4,6-tri-O-sodium sulfonato-α-D-mannopyranosyl-(1→2)-3,4,6-tri-O-sodium sulfonato-α-D-mannopyranoside] | 108 ± 11 | 68.1 | 24.5 | 40 ± 17 | 6 ± 2.1 | 0.44 ± 0.04
2 | CC(C)CCCC(C)C1CCC2C3CCC4CC(OC5OC(COS(=O)(=O)O)C(OS(=O)(=O)O)C(OS(=O)(=O)O)C5OC5OC(COS(=O)(=O)O)C(OS(=O)(=O)O)C(OC6OC(COS(=O)(=O)O)C(OS(=O)(=O)O)C(OC7OC(COS(=O)(=O)O)C(OS(=O)(=O)O)C(OC8OC(COS(=O)(=O)O)C(OS(=O)(=O)O)C(OS(=O)(=O)O)C8OS(=O)(=O)O)C7OS(=O)(=O)O)C6OS(=O)(=O)O)C5OS(=O)(=O)O)CCC4(C)C3CCC12C [Compound 27, 3β-Cholestanyl 2,3,4,6-tetra-O-sodium sulfonato-α-D-mannopyranosyl-(1→3)-2,4,6-tri-O-sodium sulfonato-α-D-mannopyranosyl-(1→3)-2,4,6-tri-O-sodium sulfonato-α-D-mannopyranosyl-(1→3)-2,4,6-tri-O-sodium sulfonato-α-D-mannopyranosyl-(1→2)-3,4,6-tri-O-sodium sulfonato-α-D-mannopyranoside] | 39 ± 6 | 63.3 | 29.6 | 1.04 ± 0.19 | 5.5 ± 2.6 | 0.24 ± 0.1
3 | CC(C)CCCC(C)C1CCC2C3CCC4CC(OC5OC(COS(=O)(=O)O)C(OS(=O)(=O)O)C(OS(=O)(=O)O)C5OC5OC(COS(=O)(=O)O)C(OS(=O)(=O)O)C(OC6OC(COS(=O)(=O)O)C(OS(=O)(=O)O)C(OS(=O)(=O)O)C6OS(=O)(=O)O)C5OS(=O)(=O)O)CCC4(C)C3CCC12C [Compound 39, 3β-Cholestanyl 2,3,4,6-tetra-O-sodium sulfonato-α-D-mannopyranosyl-(1→3)-2,4,6-tri-O-sodium sulfonato-α-D-mannopyranosyl-(1→2)-3,4,6-tri-O-sodium sulfonato-α-D-mannopyranoside] | 631 ± 4 | 50.7 | 27.3 | 319 ± 19 | 6.4 ± 2.5 | 18.5 ± 1.8
4 | CCCCCCCCCCCCCCCCCC(=O)NCCCOC1OC(COS(=O)(=O)O)C(OS(=O)(=O)O)C(OS(=O)(=O)O)C1OC1OC(COS(=O)(=O)O)C(OS(=O)(=O)O)C(OC2OC(COS(=O)(=O)O)C(OS(=O)(=O)O)C(OC3OC(COS(=O)(=O)O)C(OS(=O)(=O)O)C(OC4OC(COS(=O)(=O)O)C(OS(=O)(=O)O)C(OS(=O)(=O)O)C4OS(=O)(=O)O)C3OS(=O)(=O)O)C2OS(=O)(=O)O)C1OS(=O)(=O)O [Compound 44, 3-Stearamidopropyl 2,3,4,6-tetra-O-sodium sulfonato-α-D-mannopyranosyl-(1→3)-2,4,6-tri-O-sodium sulfonato-α-D-mannopyranosyl-(1→3)-2,4,6-tri-O-sodium sulfonato-α-D-mannopyranosyl-(1→3)-2,4,6-tri-O-sodium sulfonato-α-D-mannopyranosyl-(1→2)-3,4,6-tri-O-sodium sulfonato-α-D-mannopyranoside] | 80 ± 40 | 217.0 | 58.5 | 2.7 ± 0.5 | 4.4 ± 1.4 | 0.17 ± 0.07
5 | CC(C)CCCC(C)C1CCC2C3CCC4CC(OCc5cn(CCCOC6OC(COS(=O)(=O)O)C(OS(=O)(=O)O)C(OS(=O)(=O)O)C6OC6OC(COS(=O)(=O)O)C(OS(=O)(=O)O)C(OC7OC(COS(=O)(=O)O)C(OS(=O)(=O)O)C(OS(=O)(=O)O)C7OS(=O)(=O)O)C6OS(=O)(=O)O)nn5)CCC4(C)C3CCC12C [Compound 48, 3-{4-(Cholestan-3β-yl-oxymethyl)-[1,2,3]triazol-1-yl}propyl 2,3,4,6-tetra-O-sodium sulfonato-α-D-mannopyranosyl-(1→3)-2,4,6-tri-O-sodium sulfonato-α-D-mannopyranosyl-(1→2)-3,4,6-tri-O-sodium sulfonato-α-D-mannopyranoside] | 480 ± 40 | 73.3 | 33.1 | 460 ± 30 | 8.5 ± 0.14 | 22.6 ± 1
6 | CC(C)CCCC(C)C1CCC2C3CCC4CC(OCc5cn(C6OC(COS(=O)(=O)O)C(OC7OC(COS(=O)(=O)O)C(OC8OC(COS(=O)(=O)O)C(OS(=O)(=O)O)C(OS(=O)(=O)O)C8OS(=O)(=O)O)C(OS(=O)(=O)O)C7OS(=O)(=O)O)C(OS(=O)(=O)O)C6OS(=O)(=O)O)nn5)CCC4(C)C3CCC12C [Compound 76, 4-(Cholestan-3β-yl-oxymethyl)[1,2,3]triazol-1-yl 2,3,4,6-tetra-O-sodium sulfonato-α-D-glucopyranosyl-(1→4)-2,3,6-tri-O-sodium sulfonato-α-D-glucopyranosyl-(1→4)-1-deoxy-2,3,6-tri-O-sodium sulfonato-β-D-glucopyranoside] | 610 ± 60 | 61.2 | 30.2 | 790 ± 230 | 16 ± 4 | 50 ± 8
7 | CC(=O)OC1CC2C(CCC3CC(OS(=O)(=O)O)CCC32C)C2CCC(C(C)CCC(=O)NC3OC(COS(=O)(=O)O)C(OC4OC(COS(=O)(=O)O)C(OC5OC(COS(=O)(=O)O)C(OC6OC(COS(=O)(=O)O)C(OS(=O)(=O)O)C(OS(=O)(=O)O)C6OS(=O)(=O)O)C(OS(=O)(=O)O)C5OS(=O)(=O)O)C(OS(=O)(=O)O)C4OS(=O)(=O)O)C(OS(=O)(=O)O)C3OS(=O)(=O)O)C12C [Compound 83, N-(2,3,4,6-tetra-O-sodiumsulfonato-α-D-glucopyranosyl-(1→4)-2,3,6-tri-O-sodiumsulfonato-α-D-glucopyranosyl-(1→4)-2,3,6-tri-O-sodiumsulfonato-α-D-glucopyranosyl-(1→4)-2,3,6-tri-O-sodiumsulfonato-β-D-glucopyranosyl)-4-((3R,10S,12S,13R)-3-O-sodiumsulfonato-12-O-acetyl-10,13-dimethylhexadecahydro-1H-cyclopenta[a]phenanthren-17-yl)pentanamide] | 50 ± 4 | 41.0 | 26.8 | 7.95 ± 0.07 | 20 ± 5 | 1.25 ± 0.07
8 | CC(C)CCCC(C)C1CCC2C3CCC4CC(OC5OC(COS(=O)(=O)O)C(OC6OC(COS(=O)(=O)O)C(OC7OC(COS(=O)(=O)O)C(OS(=O)(=O)O)C(OS(=O)(=O)O)C7OS(=O)(=O)O)C(OS(=O)(=O)O)C6OS(=O)(=O)O)C(OS(=O)(=O)O)C5OS(=O)(=O)O)CCC4(C)C3CCC12C [Compound 87, 3β-Cholestanyl 2,3,4,6-tetra-O-sodium sulfonato-α-D-glucopyranosyl-(1→4)-2,3,6-tri-O-sodium sulfonato-α-D-glucopyranosyl-(1→4)-2,3,6-tri-O-sodium sulfonato-β-D-glucopyranoside] | 547 ± 50 | 51.6 | 29.2 | 190 ± 60 | 9.1 ± 2.5 | 24.8 ± 2.3
